# Earlier results as cited in patent US20210045998A1 (priority 2018, published 2021).
# Conditions: in vivo
smiles,measurement,value
"CC1=CC[C@H]2C[C@@H]1C2(C)C [α-Pinene, (1S,5S)-2,6,6-Trimethylbicyclo[3.1.1]hept-2-ene]",human pulmonary uptake,60%
